Reference: ChEMBL document CHEMBL1201862, “PubChem BioAssay data set” (2004)
Activity calls are given as the source filed them.

Tests used:
Mu-type opioid receptor = Mu-type opioid receptor (Homo sapiens, UniProt P35372); type: functional, cell-based;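 further: U2OS cells with beta-arrestin recruitment to OPRM1 by beta-gal complementation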
[1] = molecular target: 5-hydroxytryptamine receptor 2A (Mus musculus, UniProt P35363); type: functional, cell-based;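 further: CHO-K1 cells with tagged receptor and beta-arrestin; agonist potency measured as compound-induced activation of the receptor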
cells [2] = type: functional, cell-based
[3] = molecular target: Nuclear receptor subfamily 0 group B member 1 (Homo sapiens, UniProt P51843); type: functional, cell-based;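 further: HEK293T cells transfected with SF-1 and DAX-1 plus StAR promoter luciferase reporter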
[4] = molecular target: FAD-linked sulfhydryl oxidase ALR (Homo sapiens, UniProt P55789); test: inhibitors of human ALR sulfhydryl oxidase, dose response, biochemical, H2O2 detection, luminescence, cherry-pick (AID 493248)
fMet-Leu-Phe receptor = fMet-Leu-Phe receptor (Homo sapiens, UniProt P21462); test: FPR ligands, dose response (AID 519); type: functional
Aminopeptidase N = molecular target: T1, Aminopeptidase N (Plasmodium falciparum FcB1/Columbia, UniProt O96935); test: P. falciparum M1AAP inhibitors, biochemical, fluorogenic H-Leu-NHMec substrate, 1536-well (AID 1445); parameters: species or system Plasmodium falciparum 3D7, 3D7
T1 sequence (O96935 whole entry): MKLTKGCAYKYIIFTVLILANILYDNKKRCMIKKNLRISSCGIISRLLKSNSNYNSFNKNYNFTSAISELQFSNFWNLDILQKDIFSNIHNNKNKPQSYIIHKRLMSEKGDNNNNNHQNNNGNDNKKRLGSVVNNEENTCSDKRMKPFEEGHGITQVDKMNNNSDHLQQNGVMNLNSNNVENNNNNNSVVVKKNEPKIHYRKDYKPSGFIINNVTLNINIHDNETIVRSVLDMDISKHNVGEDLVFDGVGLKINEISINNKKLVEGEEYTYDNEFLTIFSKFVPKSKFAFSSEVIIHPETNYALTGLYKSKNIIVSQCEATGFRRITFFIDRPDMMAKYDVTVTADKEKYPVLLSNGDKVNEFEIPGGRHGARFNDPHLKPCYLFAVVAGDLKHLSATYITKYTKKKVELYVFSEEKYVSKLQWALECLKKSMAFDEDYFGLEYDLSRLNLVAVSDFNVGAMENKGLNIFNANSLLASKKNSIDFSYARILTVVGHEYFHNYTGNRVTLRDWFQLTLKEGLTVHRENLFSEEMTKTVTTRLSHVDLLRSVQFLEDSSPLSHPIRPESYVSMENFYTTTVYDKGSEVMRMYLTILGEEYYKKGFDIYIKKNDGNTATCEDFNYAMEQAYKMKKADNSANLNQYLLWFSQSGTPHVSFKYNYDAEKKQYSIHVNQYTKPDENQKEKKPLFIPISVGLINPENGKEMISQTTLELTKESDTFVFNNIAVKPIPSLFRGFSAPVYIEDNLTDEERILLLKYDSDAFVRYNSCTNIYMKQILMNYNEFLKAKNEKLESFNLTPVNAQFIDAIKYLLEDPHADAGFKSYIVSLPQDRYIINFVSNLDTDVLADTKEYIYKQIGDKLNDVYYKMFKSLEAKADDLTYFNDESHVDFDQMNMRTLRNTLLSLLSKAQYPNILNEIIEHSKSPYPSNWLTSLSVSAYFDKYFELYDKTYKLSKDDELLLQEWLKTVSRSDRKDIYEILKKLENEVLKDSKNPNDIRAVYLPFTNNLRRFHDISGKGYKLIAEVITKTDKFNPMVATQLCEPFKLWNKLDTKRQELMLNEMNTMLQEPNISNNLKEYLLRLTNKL

[5] = molecular target: Long-chain-fatty-acid--AMP ligase FadD28 (Mycobacterium tuberculosis, UniProt P9WQ59); test: Fluorescence polarization aasay to screen for inhibitors that compete for the binding of FadD28 to a bisubstrate Measured in Biochemical System Using Plate Reader - 2147-01_Inhibitor_Dose_CherryPick_Activity.; type: functional, Mycobacterium tuberculosis H37Rv
[6] = molecular target: Endoplasmic reticulum aminopeptidase 1 (Homo sapiens, UniProt Q9NZ08); test: ERAP1 aminopeptidase inhibitors, dose response, biochemical, cherry-pick, set 2, plate reader (AID 743314)
[7] = molecular target: Fructose-bisphosphate aldolase (Mycobacterium tuberculosis, UniProt P9WQA3); test: Fluorescence-based biochemical high throughput dose response assay for inhibitors of the fructose-bisphosphate aldolase (FBA) of M. tuberculosis.; type: functional
[8] = molecular target: T2, Beta-2 adrenergic receptor (Homo sapiens, UniProt P07550); test: Dose response for HTS for Beta-2AR agonists via FAP method from Powderset3.; type: functional
[9] = molecular target: T2, Beta-2 adrenergic receptor; test: beta2AR agonists driving receptor internalization, dose response, cell-based, FAP fluorogen, flow cytometry, cherry pick 1 (AID 588763); type: functional
Major prion protein = Major prion protein (Homo sapiens, UniProt P04156); type: functional, cell-based
cells [10] = test: cells
[11] = molecular target: Botulinum neurotoxin type F (Clostridium botulinum, UniProt P30996); test: High-throughput multiplex microsphere dose response for inhibitors of toxin protease, specifically Botulinum neurotoxin light chain F protease, compounds from Cherry Pick 02.; type: functional; conditions: read-out: EC50_MICROM
Protein skinhead-1 = molecular target: T3, Protein skinhead-1 (Caenorhabditis elegans, UniProt P34707); type: functional
T3 sequence (P34707 whole entry): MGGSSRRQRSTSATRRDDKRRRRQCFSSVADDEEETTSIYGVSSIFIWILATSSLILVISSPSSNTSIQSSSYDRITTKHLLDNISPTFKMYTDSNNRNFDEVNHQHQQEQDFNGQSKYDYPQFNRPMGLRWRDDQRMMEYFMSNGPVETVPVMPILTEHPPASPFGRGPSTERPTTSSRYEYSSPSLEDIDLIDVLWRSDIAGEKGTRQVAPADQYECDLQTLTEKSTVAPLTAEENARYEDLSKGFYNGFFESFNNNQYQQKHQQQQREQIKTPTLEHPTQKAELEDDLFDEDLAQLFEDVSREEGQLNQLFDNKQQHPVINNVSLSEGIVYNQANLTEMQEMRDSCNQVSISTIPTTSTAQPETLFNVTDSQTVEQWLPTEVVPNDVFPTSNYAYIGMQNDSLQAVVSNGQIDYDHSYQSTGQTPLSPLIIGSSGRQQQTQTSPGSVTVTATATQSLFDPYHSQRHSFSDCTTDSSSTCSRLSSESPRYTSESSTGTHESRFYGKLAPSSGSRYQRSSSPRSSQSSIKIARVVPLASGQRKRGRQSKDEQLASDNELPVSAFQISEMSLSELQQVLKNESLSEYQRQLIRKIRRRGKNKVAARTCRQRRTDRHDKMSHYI

Vero = test: Vero cell toxicity, dose response, cytotoxicity control, plate reader, cherry-pick samples (AID 687020); type: functional, cell-based; conditions: Chlorocebus sabaeus

CCCCCc1cc(=O)oc2c(C(CCN3CCN(c4ccccc4)CC3)c3ccc4c(c3)OCO4)c(OC)cc(OC)c12 (configuration not stated)
EC50 (Mu-type opioid receptor): 92.5 µM (inactive)
EC50 [1]: 76.1 µM (inactive)

CCc1ccc(NC(=O)N2CCc3ccccc3C2)cc1
IC50 (cells [2]): > 67.6 µM (inactive)
IC50 [3]: > 67.6 µM (inactive)

Cc1nnc(SCc2cnc(-c3ccccc3)o2)nc1O
AC50 [4]: 0.547 µM (active)
Ki (fMet-Leu-Phe receptor): > 66.7 µM (inactive)

CCOc1ccc(-n2c(=S)sc3c(O)nc(SCC(=O)N4CCC(C)CC4)nc32)cc1
IC50 (Aminopeptidase N): 30 µM (active)
AC50 [5]: 99 µM (active)

CCN1CCN(Cc2c(O)ccc3c(C)cc(=O)oc23)CC1
AC50 [6]: 10 µM (active)

O=C(c1cc2c(=O)n3ccccc3nc2s1)N1CCN(Cc2ccc3c(c2)OCO3)CC1
IC50 [7]: > 1.11 µM (active)
EC50 [8]: 0.00977 µM (active)
EC50 [9]: 0.0693 µM (active)

CCOC(=O)C(C)Sc1nc(-c2ccccc2)nc2ccccc12 (configuration not stated)
IC50 (Major prion protein): 1.83 µM (active)
IC50 (cells [10]): > 138 µM (inactive)

CCC(=O)NCCn1c(C)cc2ccccc21
EC50 [11]: > 20 µM (inactive)
IC50 (Protein skinhead-1): > 100 µM (inactive)

CC(=O)Nc1cccc(OCCCNC(=O)c2ccc(C(C)(C)C)cc2)c1
AC50 (Vero): 35.3 µM (active)
